Values joined by “and” are separate entries in the source; they are usually repeats but may differ in a detail not shown here. Equal values may be shown once.
Target: T1, SF3b subcomplex (SF3B1 residues 454–1304, SF3B3, PHF5A, SF3B5) (Homo sapiens, UniProt O75533+Q7RTV0)
T1 construct: SF3B1 was limited to the HEAT repeat domain from residues 454–1304 and cloned in-frame with an N-terminal Flag tag; Truncated SF3B1 and full-length SF3B3, PHF5A, and SF3B5 were synthesized; made in house; host or cells: SF21 insect cells (baculovirus, pFastBac1)
Assay: Microscale thermophoresis (MST) compound binding to SF3b subcomplex
Details: SF3b subcomplex bound to NTA-647 fixed at 10 nM
Description: The four-protein complex composed of the HEAT repeats of SF3B1 (residues 454–1304) as well as full-length SF3B3, SF3B5, and PHF5A was coexpressed and purified from insect cells. This complex is necessary and sufficient for compound binding in a scintillation proximity assay (SPA) format ([Teng et al. 2017]).
The SF3b subcomplex was first titrated against a fixed concentration (25 nM) of fluorescent label (NTA-647) to determine the optimal concentrations of protein and label for the MST experiment. After 15 min of incubation at room temperature, samples were loaded into Monolith NT.115 capillaries, and MST analysis was performed using a Monolith NT.115Pico. […] For subsequent compound-binding experiments, the SF3b subcomplex bound to NTA-647 was fixed at 10 nM, and the compound was titrated from 50 µM to 3 pM. After 15 min of incubation, samples were loaded into capillaries, and analysis was performed as described previously.
Binding of E7107 to SF3b 4-protein complex by MicroScale Thermophoresis (MST). The complex is
labeled with the fluorescent dye NTA-647 and kept constant at 10 nM. E7107 was titrated and a KD of
3.6 nM was determined for the interaction.
(1 picture or pasted object on this page, not shown here)

T1 sequence (O75533 454-1304): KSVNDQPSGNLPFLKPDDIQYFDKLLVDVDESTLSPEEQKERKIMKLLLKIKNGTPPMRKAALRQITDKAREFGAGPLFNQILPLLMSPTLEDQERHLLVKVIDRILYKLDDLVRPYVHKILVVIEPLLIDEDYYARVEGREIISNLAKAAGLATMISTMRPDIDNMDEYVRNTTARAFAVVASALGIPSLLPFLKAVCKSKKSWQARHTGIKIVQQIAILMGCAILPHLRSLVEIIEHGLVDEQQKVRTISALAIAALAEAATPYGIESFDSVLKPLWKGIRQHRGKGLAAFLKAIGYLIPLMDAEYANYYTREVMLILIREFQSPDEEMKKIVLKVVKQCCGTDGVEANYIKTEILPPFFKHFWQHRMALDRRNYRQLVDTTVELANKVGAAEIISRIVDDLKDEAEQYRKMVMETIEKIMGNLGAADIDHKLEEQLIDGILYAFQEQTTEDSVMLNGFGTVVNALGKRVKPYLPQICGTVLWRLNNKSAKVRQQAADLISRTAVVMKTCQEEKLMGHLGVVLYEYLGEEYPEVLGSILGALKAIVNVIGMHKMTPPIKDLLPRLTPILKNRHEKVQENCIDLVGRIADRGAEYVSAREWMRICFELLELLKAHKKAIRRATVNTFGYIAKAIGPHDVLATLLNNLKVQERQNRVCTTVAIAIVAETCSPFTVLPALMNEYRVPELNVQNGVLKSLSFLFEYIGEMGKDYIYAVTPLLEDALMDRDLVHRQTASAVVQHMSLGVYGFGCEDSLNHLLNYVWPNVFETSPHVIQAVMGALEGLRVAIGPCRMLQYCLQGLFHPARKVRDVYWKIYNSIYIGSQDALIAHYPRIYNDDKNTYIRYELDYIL
T1 sequence (Q9BWJ5 whole entry, further chain, the tested form may be a part): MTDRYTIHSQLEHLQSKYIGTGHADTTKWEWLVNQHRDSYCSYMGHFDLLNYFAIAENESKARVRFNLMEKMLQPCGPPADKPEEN
T1 sequence (Q7RTV0 whole entry, the tested form may be a part): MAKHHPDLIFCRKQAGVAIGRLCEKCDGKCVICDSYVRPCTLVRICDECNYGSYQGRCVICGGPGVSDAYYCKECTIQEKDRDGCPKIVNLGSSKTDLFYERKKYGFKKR
T1 sequence (Q15393 whole entry, further chain, the tested form may be a part): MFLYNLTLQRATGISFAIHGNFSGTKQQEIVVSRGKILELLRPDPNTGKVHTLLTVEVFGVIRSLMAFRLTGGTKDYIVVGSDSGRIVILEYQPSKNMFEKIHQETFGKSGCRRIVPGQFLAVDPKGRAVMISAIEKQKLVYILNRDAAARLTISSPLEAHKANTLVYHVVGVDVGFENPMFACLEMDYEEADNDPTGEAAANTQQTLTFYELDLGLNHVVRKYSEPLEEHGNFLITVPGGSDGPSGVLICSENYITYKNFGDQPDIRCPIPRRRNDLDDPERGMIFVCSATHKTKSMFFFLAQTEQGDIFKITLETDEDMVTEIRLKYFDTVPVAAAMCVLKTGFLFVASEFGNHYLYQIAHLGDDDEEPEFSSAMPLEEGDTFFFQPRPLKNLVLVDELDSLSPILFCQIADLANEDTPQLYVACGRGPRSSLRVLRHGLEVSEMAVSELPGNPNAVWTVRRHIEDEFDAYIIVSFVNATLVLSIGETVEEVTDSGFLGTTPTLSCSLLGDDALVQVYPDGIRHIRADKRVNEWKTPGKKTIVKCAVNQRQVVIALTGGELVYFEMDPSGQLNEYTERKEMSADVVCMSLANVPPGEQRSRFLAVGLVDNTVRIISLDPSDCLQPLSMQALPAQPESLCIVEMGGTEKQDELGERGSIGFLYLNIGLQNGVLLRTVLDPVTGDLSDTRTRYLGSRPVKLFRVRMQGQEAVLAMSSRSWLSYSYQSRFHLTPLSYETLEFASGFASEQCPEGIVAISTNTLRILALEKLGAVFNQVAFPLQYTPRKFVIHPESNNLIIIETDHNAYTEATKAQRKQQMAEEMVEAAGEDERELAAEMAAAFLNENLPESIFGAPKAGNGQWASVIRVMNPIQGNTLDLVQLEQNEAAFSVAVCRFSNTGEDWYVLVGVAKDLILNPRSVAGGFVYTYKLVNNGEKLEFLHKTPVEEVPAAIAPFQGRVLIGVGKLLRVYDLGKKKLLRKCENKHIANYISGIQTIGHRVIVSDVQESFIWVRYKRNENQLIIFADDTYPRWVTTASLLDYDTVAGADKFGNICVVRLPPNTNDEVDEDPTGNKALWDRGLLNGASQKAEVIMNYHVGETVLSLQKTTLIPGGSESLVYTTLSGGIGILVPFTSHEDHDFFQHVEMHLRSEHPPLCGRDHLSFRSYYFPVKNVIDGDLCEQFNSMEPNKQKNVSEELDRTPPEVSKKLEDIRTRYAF

## CCC(O)C(C)C1OC1CC(C)(O)C=CC=C(C)C1OC(=O)CC(O)CCC(C)(O)C(OC(=O)N2CCN(C3CCCCCC3)CC2)C=CC1C (stereo not shown) [Compound E7107]
  Kd: 3.6 nM and ~3.6 nM

From article PMC5859971 (Genes & Development, 2018)
